Laboratory results: ChEMBL document CHEMBL5247586, “Discovery of fusidic acid derivatives as novel STING inhibitors for treatment of sepsis” (Eur J Med Chem, 2022)
Calls of active or inactive are those of the source. The rule behind the calls is not given here.

How the values were obtained:
[1] = Cytotoxicity against mouse RAW264.7 cells assessed as cell viability at 40 uM measured after 24 hrs by MTT assay relative to control; type: toxicity, cell-based; settings: read-out: Activity
RAW264.7 = assay: Anti inflammatory activity in LPS-induced mouse RAW264.7 cells assessed as inhibition of NO production at 2.5 uM preincubated with compound for 2 hrs followed by LPS stimulation and measured after 24 hrs by griess reagent based assay relative to control; type: functional; settings: time 26 hrs
[2] = target: T1, Stimulator of interferon genes protein (Mus musculus) (UniProt Q3TBT3); assay: Binding affinity to STING in mouse RAW264.7 cells assessed as thermal stabilization at 46 degree C measured for 8 hrs by cellular thermal shift assay; type: cell-based; settings: dose 0-20 µM
T1 sequence (whole entry): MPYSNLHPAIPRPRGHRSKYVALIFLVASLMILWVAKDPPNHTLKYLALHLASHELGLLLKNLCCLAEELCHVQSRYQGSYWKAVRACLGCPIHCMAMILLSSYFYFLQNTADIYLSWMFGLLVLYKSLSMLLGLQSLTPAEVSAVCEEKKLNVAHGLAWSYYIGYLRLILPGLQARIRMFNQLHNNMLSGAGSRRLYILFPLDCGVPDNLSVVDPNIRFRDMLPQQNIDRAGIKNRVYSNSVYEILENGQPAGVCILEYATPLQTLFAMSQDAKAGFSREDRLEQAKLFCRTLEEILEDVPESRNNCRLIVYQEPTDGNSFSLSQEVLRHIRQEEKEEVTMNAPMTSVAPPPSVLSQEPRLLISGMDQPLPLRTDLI

Mus musculus = assay: Antiinflammatory activity in BALB/c mouse model of LPS induced sepsis assessed as inhibition of TNF-alpha production at 1.25 to 5 mg/kg, IG administered once a day for 3 days followed by LPS stimulation for 12 hrs starting from 2 hrs post last dose by qRT-PCR analysis; type: functional, organism-based; settings: dose 1.25-5 mg/kg, time 86.0 hrs

In the case of `C=CCONC(=O)CCSSCCC(=O)O[C@@H]1CC[C@@]2(C)[C@@H](CC[C@@]3(C)[C@H]2[C@H](O)C[C@H]2/C(=C(\CCC=C(C)C)C(=O)OCc4ccccc4)[C@@H](OC(C)=O)C[C@@]23C)[C@@H]1C`, the viability at 24 h, 40 µM [1] is reported as 91.1%, the inhibition at 2.5 µM (RAW264.7) is reported as 69.3% and the Activity [2] is reported as “Dose-Dependent Effect”. For the same compound, the inhibition (Mus musculus) was “Active”.
